{"source": "patent US20110293528A1", "about": "“ENEMA PREPARATIONS AND THEIR USE” (PHOTOCURE ASA, priority 2008, published 2011)", "origin": "cited, not measured here", "key": {"[1]": {"test_system": "rectal adenoma or rectal cancer", "conditions": "3.2 mmol per litre HAL, instillation time 30-45 minutes, rest time 30 minutes"}, "[2]": {"test_system": "pre-malignant conditions in the colon (polyps)", "conditions": "enemas of 200 mg HAL in 500 ml or 1000 ml phosphate buffered saline (1.6 and 0.8 mmol per litre)"}}}
{"compound": "CCCCCCOC(=O)CCC(=O)CN", "note": "[5-aminolevulinic acid hexyl ester]", "values": [{"measurement": "result of photodynamic detection", "setting": "[1]", "result": "satisfactory results"}, {"measurement": "more polyps detected by PDD than when using white light endoscopic imaging", "setting": "[2]", "result": 28, "unit": "%"}]}
